Source: patent US11440880B2, “Thalidomide analogs and methods of use” (The USA, as represented by the Secretary, Department of …, priority 2015, dated 2022)
Entries after “also recorded” stand apart in the source; their conditions may differ.

What was measured:
[1] = tested on: fli1:EGFP zebrafish embryos (intersegmental vessel growth); assay: fli1:EGFP zebrafish embryo angiogenesis assay; type: in vivo; parameters: fli1:EGFP angiogenesis n (survived/tested): concentration or dose not given beside the values; conditions: for minimal effective concentration: Danio rerio, lowest concentration producing an effect, compounds not producing an effect shown at the highest evaluated concentration; for fli1:EGFP angiogenesis n (survived/tested): embryos alive after 24 hours of exposure
Method in brief: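 fli1:EGFP embryos grown 24 hpf, dechorionated and exposed to compound or vehicle over a range of concentrations for up to 24 h, with CPS49 as positive control. Imaged at 48 hpf for intersegmental vessel formation and growth; survival after 24 h exposure recorded, and values reflect the lowest concentration producing an effect.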

[2] = tested on: mpo:GFP zebrafish embryos (neutrophil migration to the wound site); assay: mpo:GFP zebrafish fin-clip neutrophil migration (inflammation) assay; type: in vivo; parameters: mpo:GFP inflammation n (survived/tested): concentration or dose not given beside the values; conditions: for minimal effective concentration: Danio rerio, Neutrophil, lowest concentration producing an effect, compounds not producing an effect shown at the highest evaluated concentration; for mpo:GFP inflammation n (survived/tested): embryos survived/tested at the concentration given
Method in brief: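 Tg(mpo::EGFP) larvae tail-fin clipped (dorsal third removed) at 72 hpf, then immersed in compound or vehicle. Neutrophils migrating to the wound site counted from images 24 h later; at least 50% reduction scored as anti-inflammatory. Viability and morphology also assessed.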

WT zebrafish embryos = assay: WT zebrafish embryo development / teratogenicity; type: in vivo, zebrafish (Danio rerio); conditions: in words; at concentrations active in fli1:EGFP or mpo:GFP assays
Excerpt: To determine the effects of the candidate compounds on embryonic development, two in vivo model systems (developing zebrafish and chicken embryos) were utilized.
Malformations in the development of the zebrafish embryo were noted, including inhibition of eye, otic vesicle and fin development (FIGS. 7A-7F). […] Embryos were screened at concentrations previously determined, in this study, to be anti-angiogenic or anti-inflammatory in the fli1:EGFP and mpo:GFP assays respectively.
(§1) Concentrations used in the WT zebrafish and chicken embryo assays to assess for teratogenesis, were equal to or higher than those utilized in the fil1:EGFP and mpo:GFP zebrafish assays

chicken embryos = assay: Chicken embryo development / teratogenicity; type: in vivo, white leghorn chicken; conditions: in words; applied at HH stage 17-18
Description: Chicken Embryology: Fertilized white leghorn chicken embryos were incubated at 38° C. and staged according to Hamburger and Hamilton (HH) stages of development (1951). Embryos were tested at HH stage 17-18 (day 2.5). Following membrane removal, test compounds or vehicle control solutions were applied globally over the embryo. The eggs were sealed and the development of the embryos was monitored up to HH stage 30 (E9).
Compounds of interest were screened in chicken embryos (FIGS. 7I-7P).
as §1

SMILES | minimal effective concentration [1] [µg/mL] | fli1:EGFP angiogenesis n (survived/tested) [1] | concentration at which anti-angiogenic activity was shown ([1]; exposure from 24 hpf, imaged at 48 hpf) [µg/mL] | minimal effective concentration [2] [µg/mL] | mpo:GFP inflammation n (survived/tested) [2] | effect on development / mortality of zebrafish embryos (WT zebrafish embryos) | effect on development / mortality of chicken embryos (chicken embryos)
O=C1c2ccccc2C(=S)N1C1CCC(=S)NC1=S (stereo not drawn) [Compound 4] | 1.5 | 4/11 | 1.5 | 10 | 19/23 | defects and high mortality rates; also recorded: induced defects (e.g., microophthalmia and fin malformation) | defects and high mortality rates
O=C1NC(=S)CCC1N1C(=O)c2ccc(Cl)cc2C1=O (stereo not drawn) [Compound 23] | 10 | 23/30 | – | 10 | 13/35 | – | constriction in vasculature (white arrow) and necrosis (black arrow) of the chorioallantoic membrane
